# Assay results as given in PMC7460603 (International Journal of Molecular Sciences, 2020).
# Read-outs that look alike come from different tables or passages of the source.
# Key:
# [1] = molecular target: T1, electric eel acetylcholinesterase (eeAChE) (Electrophorus electricus, UniProt O42275); test: biochemical; assay type: biochemical; design: purchased Sigma, St. Louis, MO, USA; conditions: for Ki: three substrate concentrations (0.125, 0.25, 0.5 mM)
# Method: (§1) Cholinesterase activities were measured by the Ellman method adapted for microtiter plates, as described in Ristovski et al.. Stock solutions of the prepared ruthenium compounds (1 mg/mL) or neostigmine bromide (Sigma-Aldrich, St. Louis, MO, USA) as a positive control were prepared in 100% ethanol and progressively diluted in 100 mM potassium phosphate buffer (pH 7.4) to a final volume of 50 µL. Then, 1 mM acetylthiocholine chloride and 0.5 mM 5,5′-dithiobis-2-nitrobenzoic acid were dissolved in the same buffer and added to the wells of the microtiter plates to the final volume of 150 μL. Electric eel acetylcholinesterase (eeAChE) or horse serum BChE (hsBuChE) (both Sigma, St. Louis, MO, USA) were dissolved in the same buffer to 0.0075 U/mL. Fifty μL of each of the cholinesterases was added to start the reactions, which were followed spectrophotometrically at 405 nm and 25 °C for 5 min using a kinetic microplate reader (Dynex Technologies, Chantilly, VA, USA). Blank reactions without the inhibitors were run in the presence of the appropriate dilution of ethanol. Every measurement was repeated at least three times. For determination of the inhibitory constants, the kinetics were monitored using three different final substrate concentrations (0.125, 0.25, 0.5 mM).
# [2] = molecular target: T2, horse serum butyrylcholinesterase (hsBuChE) (Equus caballus, UniProt P81908); test: biochemical; assay type: biochemical; design: purchased Sigma, St. Louis, MO, USA; host or cells: horse serum; conditions: for Ki: three substrate concentrations (0.125, 0.25, 0.5 mM)
# T2 sequence (P81908 whole entry): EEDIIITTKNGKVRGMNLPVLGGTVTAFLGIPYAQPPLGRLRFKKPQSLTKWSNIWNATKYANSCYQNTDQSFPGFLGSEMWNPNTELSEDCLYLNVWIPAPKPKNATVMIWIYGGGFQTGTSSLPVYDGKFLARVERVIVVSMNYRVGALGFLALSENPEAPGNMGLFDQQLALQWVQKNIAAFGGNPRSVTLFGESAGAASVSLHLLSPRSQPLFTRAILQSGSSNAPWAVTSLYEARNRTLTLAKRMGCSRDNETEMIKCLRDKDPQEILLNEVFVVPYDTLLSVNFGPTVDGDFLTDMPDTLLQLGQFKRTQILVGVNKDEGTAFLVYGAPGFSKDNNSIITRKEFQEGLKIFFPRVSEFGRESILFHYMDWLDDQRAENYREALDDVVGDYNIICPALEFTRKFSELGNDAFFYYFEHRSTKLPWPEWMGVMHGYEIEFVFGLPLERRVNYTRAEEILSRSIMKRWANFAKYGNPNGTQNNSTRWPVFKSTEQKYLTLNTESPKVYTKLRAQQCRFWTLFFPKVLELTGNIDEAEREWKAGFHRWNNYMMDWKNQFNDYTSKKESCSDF
# Method: as §1
# [3] = phosphate buffer solution, cultural media RPMI and FP-RPMI, plasma; cited from earlier work
# [4] = ESI-MS stability in solution; conditions: positive ion mode, direct infusion; immediately before measurement and after three days
# [5] = 1H NMR stability in aqueous media
# Method: All assays were carried out immediately after the solution preparation.
# [6] = molecular target: T2, horse serum butyrylcholinesterase (hsBuChE); conditions: read-out: hsBuChE IC50; previously reported; cited from earlier work
# [7] = test system: glutathione-S-transferase; conditions: cited from earlier work
# human AChE (hAChE) = conditions: read-out: hAChE IC50; previously reported; cited from earlier work
# NHEK-1 cells = conditions: non-cancer cells; cited from earlier work
# HUVEC cells = conditions: non-cancer cells; cited from earlier work
# neuromuscular transition = conditions: at pharmaceutically relevant concentrations; cited from earlier work
# [8] = cited from earlier work
# [9] = molecular target: T1, electric eel acetylcholinesterase (eeAChE); conditions: read-out: eeAChE IC50; previously reported; cited from earlier work
# immunoglobulins G = conditions: human serum; cited from earlier work
# human serum albumin = conditions: cited from earlier work
# [10] = concentration inducing 50% inhibition of enzyme activity, mean ± SEM of three independent measurements, / = no activity, read-out: eeAChE IC50
# [11] = concentration inducing 50% inhibition of enzyme activity, mean ± SEM of three independent measurements, / = no activity, read-out: hsBuChE IC50
# [12] = read-out: eeAChE IC50, concentration inducing 50% inhibition of enzyme activity, mean ± SEM of three independent measurements, / = no activity
# [13] = read-out: hsBuChE IC50, concentration inducing 50% inhibition of enzyme activity, mean ± SEM of three independent measurements, / = no activity
# T1 sequence (O42275 24-633): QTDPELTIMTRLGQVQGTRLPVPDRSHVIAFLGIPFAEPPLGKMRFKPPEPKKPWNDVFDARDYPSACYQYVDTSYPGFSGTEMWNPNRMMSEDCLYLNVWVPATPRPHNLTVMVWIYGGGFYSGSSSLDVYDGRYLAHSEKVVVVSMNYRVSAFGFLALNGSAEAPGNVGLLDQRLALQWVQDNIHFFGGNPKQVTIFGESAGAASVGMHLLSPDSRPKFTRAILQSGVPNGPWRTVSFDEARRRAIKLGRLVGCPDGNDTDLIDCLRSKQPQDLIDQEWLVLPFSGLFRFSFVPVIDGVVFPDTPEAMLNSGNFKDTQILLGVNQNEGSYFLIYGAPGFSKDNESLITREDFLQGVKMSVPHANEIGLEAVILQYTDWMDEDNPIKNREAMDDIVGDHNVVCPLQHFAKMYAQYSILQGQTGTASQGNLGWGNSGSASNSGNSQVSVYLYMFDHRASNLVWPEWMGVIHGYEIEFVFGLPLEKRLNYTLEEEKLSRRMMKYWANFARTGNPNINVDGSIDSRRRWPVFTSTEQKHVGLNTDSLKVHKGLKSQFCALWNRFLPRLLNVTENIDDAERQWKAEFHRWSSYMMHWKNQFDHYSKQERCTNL
Molecule,"IC50 [1, 10] [µM]",Ki [1] [µM],"IC50 [2, 11] [µM]",Ki [2] [µM],further results
Cc1ccc(=S)n([O-])c1.Cc1ccc(C(C)C)cc1.[Cl-].[Ru+2] [Compound 1d],6.6 ± 0.5,9.7,1.9 ± 0.4,0.4,
Cc1ccc(C(C)C)cc1.Cc1cccn([O-])c1=S.[Cl-].[Ru+2] [Compound 1b],10.5 ± 0.7,9.7,1.2 ± 0.02,0.4,"stability in aqueous media (UV-Vis) [3]: stable; stability in aqueous solution (ESI-MS, [M − Cl]+ ion) [4]: same spectrum"
Cc1cccc(=S)n1O [e],,,,,"IC50 [1, 12]: > 100 µM; IC50 [2]: > 100 µM"
"Cc1ccc(C(C)C)cc1.[Cl][Ru+].[O-]n1ccc2ccccc2c1=S [Compound 1f, [(η^6-p-Cymene)Ru(2-hydroxyisoquinoline-1-(2H)-thionato)Cl]]",8.1 ± 0.5,12.3,1.3 ± 0.1,0.4,
"On1ccc2ccccc2c1=S [f, 2-Hydroxyisoquinoline-1-(2H)-thione]",,,,,"IC50 [1, 12]: > 100 µM; IC50 [2, 13]: > 100 µM"
Cc1ccc(C(C)C)cc1.Cc1cccc(=S)n1[O-].[Cl-].[Ru+2] [Compound 1e],5.1 ± 0.4,4.9,0.7 ± 0.1,3.4,"stability under enzymatic assay conditions (1H NMR) ([5]; 6.25% EtOH-d6/D2O, 80.2 mM K2HPO4 and 19.8 mM KH2PO4, immediately and after one hour): remain stable; stability in D2O containing 140 mM NaCl (1H NMR) ([5]; after one day): negligible changes; stability in D2O (1H NMR) ([5]; immediately and after three days): remain the main present species"
"CN(C)C(=O)Oc1cccc([N+](C)(C)C)c1 [Neostigmine bromide, reference compound]",,,,,IC50 [1]: 4.3 ± 0.8 µM; IC50 [2]: 37.3 ± 4.2 µM
Cc1ccc(C(C)C)cc1.[Cl][Ru+].[O-]n1ccccc1=S [Compound 1a],7.8 ± 0.8,15.1,2.3 ± 0.1,0.5,IC50 [6]: 7.52 µM; inhibition of glutathione-S-transferase [7]: inhibited; IC50 (human AChE (hAChE)): 25.1 µM; cytotoxicity against NHEK-1 cells (NHEK-1 cells): no cytotoxicity; cytotoxicity against HUVEC cells (HUVEC cells): no cytotoxicity; physiological response on the neuromuscular transition (neuromuscular transition): did not express any unwanted physiological response; stability in D2O solution containing NaCl [8]: confirmed the stability; stability in DMSO-d6/D2O (1H NMR) [8]: stable; IC50 [9]: 5.01 µM; fraction interacting with immunoglobulins G (immunoglobulins G): 5%; fraction interacting with human serum albumin (human serum albumin): 70%; fraction remaining unbound (human serum albumin): 25%
Cc1ccc(C(C)C)cc1.Cc1ccn([O-])c(=S)c1.[Cl-].[Ru+2] [Compound 1c],9.5 ± 1.1,8.5,2.7 ± 0.8,0.9,
Cc1ccn(O)c(=S)c1 [c],,,,,IC50 ([1]; read-out: eeAChE IC50): > 100 µM; IC50 ([2]; read-out: hsBuChE IC50): > 100 µM
"On1ccccc1=S [a, 1-hydroxypyridine-2(1H)-thione]",,,,,"IC50 [1, 12]: > 100 µM; IC50 [2, 13]: > 100 µM"
"On1c(=S)ccc2ccccc21 [g, 1-Hydroxyquinoline-2-(1H)-thione]",> 100,,> 100,,
"On1cc2ccccc2cc1=S [h, 2-Hydroxyisoquinoline-3-(2H)-thione]",> 100,,53,,activity against eeAChE (in words) [1]: poorly active; activity against hsBuChE (in words) [2]: poorly active
[(η^6-p-Cymene)Ru(2-hydroxyisoquinoline-3-(2H)-thionato)Cl] [Compound 1h],14.3 ± 2,20.1,0.7 ± 0.1,0.2,
[(η^6-p-Cymene)Ru(1-hydroxyquinoline-2-(1H)-thionato)Cl] [Compound 1g],4.9 ± 0.1,5.6,0.2 ± 0.05,0.2,
Cc1ccc(=S)n(O)c1 [d],,,,,"IC50 [1, 12]: > 100 µM; IC50 [2, 13]: > 100 µM"
Cc1cccn(O)c1=S [b],,,,,"IC50 [1, 12]: > 100 µM; IC50 [2, 13]: > 100 µM"
